Common to all, as to type: cell-based, human
Experiment [1] has as its system imDAPs. Kind of experiment: imDAP expansion: cell morphology, cell number (Vi-cell cytometer), expansion fold, Population Doubling Time. Here is the method: imDAPs were produced according to the method described in CN201910169525.0. The imDAPs (P0) were seeded on VTN-coated plates (1 μg/cm^2) at a density of 1×10^5 cells/cm^2 in the expansion medium (50% DMEM/F12, 50% Neurobasal™ medium, 1% (v/v) Glutamax, 2% (v/v) B27 (50×), 0.2 μM LDN193189, 3 μM CHIR99021, 100 ng/mL FGF8b) in the absence or presence of 5 μM Blebbistatin. In case where Blebbistatin is present, Blebbistatin was either removed 24 hrs after plating or present throughout the culture period. The medium was changed every day for 5 days.
imDAPs were produced according to the method described in CN201910169525.0. The imDAPs (P0) were seeded on VTN-coated plates (1 μg/cm^2) at a density of 1×10^5 cells/cm^2 in the expansion medium (50% DMEM/F12, 50% Neurobasal™ medium, 1% (v/v) Glutamax, 2% (v/v) B27 (50×), 3 μM CHIR99021, 100 ng/mL FGF8b, […]) in the absence or presence of 0.2 μM LDN193189. The medium was changed every day for 5 days.
imDAPs were produced according to the method described in CN201910169525.0. The imDAPs (P0) were seeded on VTN-coated plates (1 μg/cm^2) at a density of 1×10^5 cells/cm^2 in the expansion medium (50% DMEM/F12, 50% Neurobasal™ medium, 1% (v/v) Glutamax, 2% (v/v) B27 (50×), 0.2 μM LDN193189, 3 μM CHIR99021, 100 ng/mL FGF8b, 5 μM Blebbistatin). The medium was changed every day. When imDAPs reach 100% confluence (4-5 days), cells were passaged enzymatically with 1× TrypLE, centrifuged at 250 g for 5 minutes, counted and replaced on new VTN-coated plates (1 μg/cm^2) at a density of 1×10^5 cells/cm^2 in the expansion medium. imDAPs were continuously expanded for 6 passages. At each passage, imDAPs were harvested at an expansion fold 5˜10 (over the initial number of imDAPs plated).
imDAPs were produced according to the method described in CN201910169525.0. The imDAPs (P0) were seeded on DLL4-coated ([…]), VTN-coated (1 μg/cm^2) and DLL4/VTN-coated ([…]) plates at a low density of 1×10^4 cells/cm^2 respectively, and cultured in the expansion medium in the absence or presence of 5 µM SB431542. Medium was replaced every 3rd day until reaching 100% confluence (6 days) for cell collection. The typical cell morphology on day 4 was recorded (FIG. 4A). The cell number of each group was counted by Vi-cell cytometer (FIG. 4B). The cells of each group were stained with Foxa2-PE antibody (BD, #561589), the percentage of Foxa2+ imDAPs were analyzed by flow cytometry (FIG. 4C). The expansion medium used in this example contained the following components: 50% DMEM/F12, 50% Neurobasal™ medium, 1% (v/v) Glutamax, 1% (v/v) B27, 50 μg/ml ascorbic acid, 0.2 μM LDN193189, 100 ng/ml FGF8b, 3 μM CHIR99021 and 10 μM Y27632.
imDAPs were produced according to the method described in CN201910169525.0. The imDAPs (P0) were seeded on DLL4/VTN-coated (1 μg/cm^2 for each) plates at a low density of 1×10^4 cells/cm^2, and cultured in the expansion medium (EM1, EM2, EM3, EM4). Medium was replaced every 3rd day until reaching 100% confluence (6 days) for cell collection. EM1 used in Example 9 contained the following components: 50% DMEM/F12, 50% Neurobasal™ medium, 1% (v/v) Glutamax, 1% (v/v) B27 (50×), […], 3 μM CHIR99021, 5 μM SB431542 and 10 μM Y27632. EM2 used in Example 9 contained the following components: 50% DMEM/F12, 50% Neurobasal™ medium, 1% (v/v) Glutamax, 1% (v/v) B27 (50×), 50 μg/ml ascorbic acid, […] LDN193189, 3 μM CHIR99021, 5 μM SB431542 and 10 μM Y27632. EM3 used in Example 9 contained the following components: 50% DMEM/F12, 50% Neurobasal™ medium, 1% (v/v) Glutamax, 1% (v/v) B27 (50×), 50 μg/mL ascorbic acid, […], 100 ng/ml FGF8b, 3 μM CHIR99021, 5 μM SB431542 and 10 μM Y27632. EM4 used in Example 9 contained the following components: 50% DMEM/F12, 50% Neurobasal™ medium, 1% (v/v) Glutamax, 1% (v/v) B27 (50×), 50 μg/ml ascorbic acid, 0.2 μM LDN193189, 10 ng/ml FGF2, 3 μM CHIR99021, 5 μM SB431542 and 10 μM Y27632. […]

Experiment [2] deals with imDAPs. Kind of experiment: imDAP maturation: cell morphology, adhesion and cell yield. The note with it: Example 12; 1 μM IWR1 for at least 3 days; day 7; FIG. 7D. Here is the method: imDAPs were produced according to the method described in CN201910169525.0, and expanded as described in Example 10. […] MM-H used in Example 11 contained the following components: Neurobasal™ medium, 1% (v/v) Glutamax, 0.5 mM Db-cAMP sodium salt, 200 μM ascorbic acid, 20 ng/ml BDNF, 20 ng/ml GDNF, 1 ng/ml TGF-β3, 10 μM DAPT, HhPLT (0.5%, 1%, 2%). MM-B used in Example 11 contained the following components: Neurobasal, 1% (v/v) Glutamax, 0.5 mM Db-cAMP sodium salt, 200 μM ascorbic acid, 20 ng/ml BDNF, 20 ng/ml GDNF, 1 ng/ml TGF-β3, 10 μM DAPT, 2% (v/v) B27 (50×) (as control). The above HhPLT was produced from hPLT as follows. The hPLT was centrifuged at 3000 g for 30 min at 4° C. to obtain the supernatant, which was heated to 56° C. for 30 min. The suspension was finally cooled down to 4° C. at least 5 min, and spun at 3000 g for 30 min at 4° C. to obtain the HhPLT supernatant. Aliquots were prepared and stored at −80° C. until use. The above Medium was changed every 3rd day. On day 7, the imDAPs at early maturation stage were dissociated enzymatically with 1× TrypLE, centrifuged at 250 g for 5 minutes.
imDAPs were produced according to the method described in CN201910169525.0, and expanded as described in Example 10. […] Medium was changed every 3rd day. On day 7, the imDAPs at early maturation stage were dissociated enzymatically with 1× TrypLE, centrifuged at 250 g for 5 minutes. Cells were collected for RT-qPCR analysis of EN1, LMX1A, FOXA2, NURR1, SOX6 and TH gene expression. The maturation medium used in Example 12 contained the following components: Neurobasal™ medium, 1% (v/v) Glutamax, 1% (v/v) HhPLT, 0.5 mM Db-cAMP sodium salt, 200 μM ascorbic acid, 20 ng/mL BDNF, 20 ng/mL GDNF, 1 ng/mL TGF-β3, 10 μM DAPT.
imDAPs were produced according to the method described in CN201910169525.0, and expanded as described in Example 10. […] Cells were collected and counted by Vi-cell cytometer. The cells were analyzed by RT-qPCR for EN1, LMX1A, FOXA2, NURR1, SOX6 and TH gene expression. […]

The test system of experiment [3] is imDAPs. Kind of experiment: Flow cytometry (FACS) analysis of FOXA2 expression in expanded imDAPs. The note with it: Example 8; VTN or DLL4/VTN coating, with or without SB431542; FIG. 4C. As for the experimental part:
• 1. Individualize and collect cells by either Accutase or TrypLE treatment. • 2. Wash cells with 1 ml PBS and pellet cells at 250×g for 15 sec. • 3. Remove supernatant, add ˜200 μl of 4% PFA, mix and fix for 10 min at RT. • 4. Pellet cells at 350×g for 5 min. • 5. Wash cells by 1 ml of FACS buffer and pellet cells at 350×g for 5 min. • 6. Remove supernatant, add 200 μl/tube of FACS buffer/0.1% TritonX, mix for 10 min at RT. • 7. Wash cells by 1 ml of FACS buffer and pellet cells at 350×g for 5 min. • 8. Remove supernatant, add 200 μl/tube of primary antibody diluted in FACS buffer, mix gently, and incubate for 30 min at RT. • 9. Wash cells by 1 ml of FACS buffer and pellet cells at 350×g for 5 min. • 10. Remove supernatant, and add 200 μl of secondary antibody diluted in FACS buffer, mix gently, and incubate for 30 min at RT. • 11. Wash cells by 1 ml of FACS buffer and pellet cells at 300×g for 5 min. • 12. Remove supernatant, add 200 μl of FACS buffer, and run samples on the flow cytometry. (2) qRT-PCR • 1. For qRT-PCR analysis of mRNA gene expression, RNA should be harvested from at least 2×10^6 cells. • 2. Harvest cells, add 350 μl of buffer RLT+1% (vol/vol) s-mercaptoethanol to the well, transfer the lysate to a 1.5 ml tube, and put it immediately on ice. • 3. Perform RNA extraction using the Tiangen Kit (DP430), and follow the manufacturer's protocol ‘Purification of total RNA from animal and human cells’. • 4. When the RNA extraction was completed, determine the RNA concentration using a Nanodrop instrument. • 5. Perform the first-strand cDNA synthesis reaction with 1 μg of RNA using the HiScript TM II Q RT SuperMIX for qPCR(+gDNA wiper) Kit (Vazyme, #R223-01) for RT-qPCR. Follow the manufacturer's ‘First-Strand cDNA Synthesis’ protocol. This reaction would yield a 20 μl product. • 6. Dilute the 10 μl cDNA product in 80 μl of nuclease-free water. • 7. Pipette the diluted cDNA product (1 μl), Sybr green master mix (5 μl, Transgen, #AQ131) and 0.95 μM reverse/forward primer mix (4 μl) into a 384-well PCR plate in triplicate, either manually or using an automated pipetting robot. The complete primer panel included the target genes and the housekeeping gene (RPL13A). In the analysis, also included a sample of undifferentiated hPSCs to determine the gene expression levels relative to the expression in hPSCs. • 8. Analyze the samples by running a quantitative PCR on the LightCycler 480 instrument using a 40× cycle two-step protocol with a 60° C., 60 sec annealing/elongation step and a 95° C., 30 sec denaturation step. The average CT values from the three technical replicates were used for calculations of relative gene expression using the ΔΔCT method. For each gene, calculate the FC of the differentiated samples relative to the undifferentiated control sample using the housekeeping gene for normalization. Next, calculate the average of the FC values on the basis of the housekeeping gene. (3) Immunocytochemical Analysis • 1. Cell fixation: Remove the medium from the cells and wash with PBS. Add 4% (wt/vol) PFA (e.g., 200 μl to a well in a 48-well plate) and incubate at room temperature (RT) for 15 min. after incubation, wash the cells three times in PBS. • 2. Blocking: Remove PBS from the wells and add blocking solution to the cells, add enough volume to cover the cells. Leave the cells in blocking solution for 1 h at RT. • 3. Primary antibodies incubation: Remove the blocking solution from the cells and add the primary antibody solutions (˜100 μl/cm^2). […]
(In general: In flow cytometry, cells or beads pass a laser one at a time.)

`Cc1ccc2c(c1)C(=O)C1(O)CCN(c3ccccc3)C1=N2` (centres unmarked) [Blebbistatin]: the “imDAP expansion (cell morphology)” value in experiment [1] (Example 1, 5 μM Blebbistatin throughout culture vs no Blebbistatin or plating day only, VTN-coated plates, 5 days, FIG. 1A) is recorded as “supported better imDAP expansion”.

Regarding `O=C(Nc1cccc2cccnc12)c1ccc(N2C(=O)[C@@H]3[C@H](C2=O)[C@@H]2C=C[C@H]3C2)cc1` [IWR1], in experiment [2], the “cell morphology during maturation” value is “showed more obvious neural fibers”.

Consider `NC(=O)c1ccc(-c2nc(-c3ccc4c(c3)OCO4)c(-c3ccccn3)[nH]2)cc1` [SB431542], for which the “FOXA2 expression (percentage of Foxa2+ imDAPs)” value in experiment [3] is listed as “could improve FOXA2 expression”.

Turning to “FGF2: fibroblast growth factor, used at 10 ng/ml”, the “imDAP expansion (overall conclusion)” value in experiment [1] (Example 9) is recorded as “had no additional effects on imDAP expansion”. Further, the “cell morphology of expanded imDAPs” value in experiment [1] (Example 9, 10 ng/ml FGF2 (EM4), DLL4/VTN-coated, day 5, FIG. 5A) is on record as “some obvious heterogeneous cells were observed”.

(Values after patent US12391919B2, “Culture medium, coating matrix and method for maturing midbrain dopaminergic progenitor cells” (NUWACELL BIOTECHNOLOGIES CO., LTD., priority 2022, dated 2025).)
